Assay results reported in ChEMBL document CHEMBL4041509, “Structure-activity relationship study of novel 2-aminobenzofuran derivatives as P-glycoprotein inhibitors” (Eur J Med Chem, 2017).
One block for each compound: values may come before it. Active and inactive are the calls of the source. No cut-off for these calls is given here.

Columns and labels:
[1] = molecular target: T1, ATP-dependent translocase ABCB1 (Homo sapiens, UniProt P08183); assay: Inhibition of ABCB1 (unknown origin) expressed in human Flp-In-293 cells assessed as potentiation of vincristine-induced cytotoxicity by SRB assay; type: cell-based
[2] = molecular target: T1, ATP-dependent translocase ABCB1; assay: Inhibition of ABCB1 (unknown origin) expressed in Flp-In-293 cells assessed as increase in calcein-AM uptake at 5 uM preincubated for 30 mins followed by calcein-AM addition measured after 30 mins by fluorescence spectrometric method relative to control; type: cell-based; details: 0.5 h
[3] = molecular target: T1, ATP-dependent translocase ABCB1; assay: Inhibition of ABCB1 (unknown origin) expressed in Flp-In-293 cells assessed as increase in calcein-AM uptake at 10 uM preincubated for 30 mins followed by calcein-AM addition measured after 30 mins by fluorescence spectrometric method relative to control; type: cell-based; details: 0.5 h
[4] = test system: HEK293; assay: Cytotoxicity against human Flp-In-293 cells assessed as reduction in cell viability by SRB assay; type: cell-based
[5] = test system: HEK293; assay: Cytotoxicity against human Flp-In-293 cells expressing MDR1 assessed as reduction in cell viability by SRB assay; type: ADME, cell-based
[6] = test system: HeLa S3; assay: Cytotoxicity against human HeLaS3 assessed as reduction in cell viability by SRB assay; type: cell-based
[7] = Cytotoxicity against human KBVIN assessed as reduction in cell viability by SRB assay; type: cell-based
[8] = molecular target: T1, ATP-dependent translocase ABCB1; assay: Inhibition of ABCB1 (unknown origin) expressed in human Flp-In-293 cells assessed as potentiation of vincristine-induced cytotoxicity at 1 uM by SRB assay relative to control; type: cell-based
[9] = test system: HEK293; assay: Potentiation of vincristine-induced cytotoxicity against human Flp-In-293 cells at 1 uM by SRB assay relative to control; type: functional
[10] = test system: HEK293; assay: Potentiation of vincristine-induced cytotoxicity against human Flp-In-293 cells at 2.5 uM by SRB assay relative to control; type: functional
[11] = test system: HEK293; assay: Potentiation of paclitaxel-induced cytotoxicity against human Flp-In-293 cells at 1 uM by SRB assay relative to control; type: functional
[12] = test system: HEK293; assay: Potentiation of paclitaxel-induced cytotoxicity against human Flp-In-293 cells at 2.5 uM by SRB assay relative to control; type: functional
[13] = test system: HEK293; assay: Potentiation of doxorubicin-induced cytotoxicity against human Flp-In-293 cells at 1 uM by SRB assay relative to control; type: functional
[14] = test system: HEK293; assay: Potentiation of doxorubicin-induced cytotoxicity against human Flp-In-293 cells at 2.5 uM by SRB assay relative to control; type: functional
[15] = molecular target: T1, ATP-dependent translocase ABCB1; assay: Inhibition of ABCB1 (unknown origin) expressed in human Flp-In-293 cells assessed as potentiation of vincristine-induced cytotoxicity at 2.5 uM by SRB assay relative to control; type: cell-based
[16] = molecular target: T1, ATP-dependent translocase ABCB1; assay: Inhibition of ABCB1 (unknown origin) expressed in human Flp-In-293 cells assessed as potentiation of paclitaxel-induced cytotoxicity at 1 uM by SRB assay relative to control; type: cell-based
[17] = molecular target: T1, ATP-dependent translocase ABCB1; assay: Inhibition of ABCB1 (unknown origin) expressed in human Flp-In-293 cells assessed as potentiation of paclitaxel-induced cytotoxicity at 2.5 uM by SRB assay relative to control; type: cell-based
[18] = molecular target: T1, ATP-dependent translocase ABCB1; assay: Inhibition of ABCB1 (unknown origin) expressed in human Flp-In-293 cells assessed as potentiation of doxorubicin-induced cytotoxicity at 1 uM by SRB assay relative to control; type: cell-based
[19] = molecular target: T1, ATP-dependent translocase ABCB1; assay: Inhibition of ABCB1 (unknown origin) expressed in human Flp-In-293 cells assessed as potentiation of doxorubicin-induced cytotoxicity at 2.5 uM by SRB assay relative to control; type: cell-based
[20] = species: Homo sapiens; assay: Inhibition of P-gp in human HeLaS3 cells assessed as potentiation of vincristine-induced cytotoxicity at 1 uM by SRB assay relative to control; type: cell-based
[21] = species: Homo sapiens; assay: Inhibition of P-gp in human HeLaS3 cells assessed as potentiation of vincristine-induced cytotoxicity at 2.5 uM by SRB assay relative to control; type: cell-based
[22] = species: Homo sapiens; assay: Inhibition of P-gp in human HeLaS3 cells assessed as potentiation of paclitaxel-induced cytotoxicity at 1 uM by SRB assay relative to control; type: cell-based
[23] = species: Homo sapiens; assay: Inhibition of P-gp in human HeLaS3 cells assessed as potentiation of paclitaxel-induced cytotoxicity at 2.5 uM by SRB assay relative to control; type: cell-based
[24] = species: Homo sapiens; assay: Inhibition of P-gp in human HeLaS3 cells assessed as potentiation of doxorubicin-induced cytotoxicity at 1 uM by SRB assay relative to control; type: cell-based
[25] = species: Homo sapiens; assay: Inhibition of P-gp in human HeLaS3 cells assessed as potentiation of doxorubicin-induced cytotoxicity at 2.5 uM by SRB assay relative to control; type: cell-based
[26] = species: Homo sapiens; assay: Inhibition of P-gp in human KBVIN cells assessed as potentiation of vincristine-induced cytotoxicity at 1 uM by SRB assay relative to control; type: cell-based
[27] = species: Homo sapiens; assay: Inhibition of P-gp in human KBVIN cells assessed as potentiation of vincristine-induced cytotoxicity at 2.5 uM by SRB assay relative to control; type: cell-based
[28] = species: Homo sapiens; assay: Inhibition of P-gp in human KBVIN cells assessed as potentiation of paclitaxel-induced cytotoxicity at 1 uM by SRB assay relative to control; type: cell-based
[29] = species: Homo sapiens; assay: Inhibition of P-gp in human KBVIN cells assessed as potentiation of paclitaxel-induced cytotoxicity at 2.5 uM by SRB assay relative to control; type: cell-based
[30] = species: Homo sapiens; assay: Inhibition of P-gp in human KBVIN cells assessed as potentiation of doxorubicin-induced cytotoxicity at 1 uM by SRB assay relative to control; type: cell-based
[31] = species: Homo sapiens; assay: Inhibition of P-gp in human KBVIN cells assessed as potentiation of doxorubicin-induced cytotoxicity at 2.5 uM by SRB assay relative to control; type: cell-based
[32] = molecular target: T1, ATP-dependent translocase ABCB1; assay: Inhibition of ABCB1 (unknown origin) expressed in human Flp-In-293 cells assessed as potentiation of paclitaxel-induced cytotoxicity by SRB assay; type: cell-based
[33] = molecular target: T1, ATP-dependent translocase ABCB1; assay: Inhibition of ABCB1 (unknown origin) expressed in human Flp-In-293 cells assessed as potentiation of doxorubicin-induced cytotoxicity by SRB assay; type: cell-based
[34] = species: Homo sapiens; assay: Inhibition of P-gp in human HeLaS3 cells assessed as potentiation of paclitaxel-induced cytotoxicity by SRB assay; type: cell-based
[35] = species: Homo sapiens; assay: Inhibition of P-gp in human HeLaS3 cells assessed as potentiation of vincristine-induced cytotoxicity by SRB assay; type: cell-based
[36] = species: Homo sapiens; assay: Inhibition of P-gp in human HeLaS3 cells assessed as potentiation of doxorubicin-induced cytotoxicity by SRB assay; type: cell-based
[37] = species: Homo sapiens; assay: Inhibition of P-gp in human KBVIN cells assessed as potentiation of vincristine-induced cytotoxicity by SRB assay; type: cell-based
[38] = species: Homo sapiens; assay: Inhibition of P-gp in human KBVIN cells assessed as potentiation of paclitaxel-induced cytotoxicity by SRB assay; type: cell-based
[39] = species: Homo sapiens; assay: Inhibition of P-gp in human KBVIN cells assessed as potentiation of doxorubicin-induced cytotoxicity by SRB assay; type: cell-based
[40] = test system: HEK293; assay: Effect on ABCB1 mRNA expression in human Flp-In-293 cells at 5 uM after 72 hrs by qRT-PCR method; type: functional, cell-based
[41] = test system: HEK293; assay: Effect on ABCB1 mRNA expression in human Flp-In-293 cells expressing ABCB1 at 5 uM after 72 hrs by qRT-PCR method; type: functional, cell-based
[42] = molecular target: T1, ATP-dependent translocase ABCB1; assay: Potency index, ratio of compound effect to verapamil effect for inhibition of ABCB1 (unknown origin) expressed in Flp-In-293 cells assessed as increase in calcein-AM uptake at 5 uM preincubated for 30 mins followed by calcein-AM addition measured after 30 mins by fluorescence spectrometric method; type: cell-based; details: 0.5 h

T1 sequence (P08183 whole entry): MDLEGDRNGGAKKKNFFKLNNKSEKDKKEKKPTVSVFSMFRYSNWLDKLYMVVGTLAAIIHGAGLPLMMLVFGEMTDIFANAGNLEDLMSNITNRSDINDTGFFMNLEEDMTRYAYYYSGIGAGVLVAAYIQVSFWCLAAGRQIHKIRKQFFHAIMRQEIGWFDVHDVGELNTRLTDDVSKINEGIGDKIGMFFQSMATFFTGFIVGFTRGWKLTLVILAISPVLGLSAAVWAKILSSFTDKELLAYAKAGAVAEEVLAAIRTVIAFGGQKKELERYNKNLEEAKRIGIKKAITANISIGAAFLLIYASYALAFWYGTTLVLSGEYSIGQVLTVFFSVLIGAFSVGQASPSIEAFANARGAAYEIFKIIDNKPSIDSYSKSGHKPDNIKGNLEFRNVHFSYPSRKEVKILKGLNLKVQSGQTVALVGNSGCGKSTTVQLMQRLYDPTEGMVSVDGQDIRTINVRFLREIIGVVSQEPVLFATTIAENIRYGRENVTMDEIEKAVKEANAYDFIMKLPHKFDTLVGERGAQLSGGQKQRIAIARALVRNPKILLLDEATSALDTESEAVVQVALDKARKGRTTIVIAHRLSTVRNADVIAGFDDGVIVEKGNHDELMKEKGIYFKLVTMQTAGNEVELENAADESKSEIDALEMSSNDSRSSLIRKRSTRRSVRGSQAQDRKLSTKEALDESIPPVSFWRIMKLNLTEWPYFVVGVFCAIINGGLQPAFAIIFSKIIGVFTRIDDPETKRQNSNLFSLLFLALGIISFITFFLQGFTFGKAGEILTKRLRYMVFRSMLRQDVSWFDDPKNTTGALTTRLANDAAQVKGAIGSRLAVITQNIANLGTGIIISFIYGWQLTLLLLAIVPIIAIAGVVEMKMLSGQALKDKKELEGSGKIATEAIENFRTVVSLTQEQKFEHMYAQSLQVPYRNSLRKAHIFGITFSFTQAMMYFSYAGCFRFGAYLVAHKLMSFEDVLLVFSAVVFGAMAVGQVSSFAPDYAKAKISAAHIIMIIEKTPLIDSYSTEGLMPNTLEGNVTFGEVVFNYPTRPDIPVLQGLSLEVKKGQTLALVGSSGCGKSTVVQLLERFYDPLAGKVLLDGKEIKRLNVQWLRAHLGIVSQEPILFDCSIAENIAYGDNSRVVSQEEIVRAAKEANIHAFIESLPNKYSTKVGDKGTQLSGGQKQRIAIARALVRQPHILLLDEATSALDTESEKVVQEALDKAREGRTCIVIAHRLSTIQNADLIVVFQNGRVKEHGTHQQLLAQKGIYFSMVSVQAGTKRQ

fold change (FC) [2]: 8.52
fold change (FC) [3]: 9.12
SMILES: COc1ccc(-c2cc(OCCN3CCCC3)c3c(-c4cccs4)c(N)oc3c2)cc1OC
inhibition (INH) [1]: Dose-dependent effect
IC50 [4]: 36.5 µM
IC50 [5]: 37 µM
IC50 [6]: 38 µM
IC50 [7]: 36.3 µM
fold change (FC) [8]: 1.69
fold change (FC) [9]: 4.25
fold change (FC) [10]: 8.36
fold change (FC) [11]: 0.92
fold change (FC) [12]: 1.38
fold change (FC) [13]: 0.91
fold change (FC) [14]: 0.96
fold change (FC) [15]: 5.92
fold change (FC) [16]: 1.23
fold change (FC) [17]: 2.65
fold change (FC) [18]: 2.78
fold change (FC) [19]: 3.95
fold change (FC) [20]: 1.17
fold change (FC) [21]: 1.08
fold change (FC) [22]: 3.8
fold change (FC) [23]: 3.97
fold change (FC) [24]: 0.9
fold change (FC) [25]: 2.71
fold change (FC) [26]: 25.7
fold change (FC) [27]: 34.2
fold change (FC) [28]: 2.55
fold change (FC) [29]: 9.27
fold change (FC) [30]: 1.51
fold change (FC) [31]: 1.88
inhibition (INH) [32]: Dose-dependent effect
inhibition (INH) [33]: Dose-dependent effect
inhibition [34]: Dose-dependent effect
inhibition [35]: Dose-dependent effect
inhibition [36]: Dose-dependent effect
inhibition [37]: Dose-dependent effect
inhibition [38]: Dose-dependent effect
inhibition [39]: Dose-dependent effect
Activity [40]: inactive
Activity [41]: inactive

fold change (FC) [2]: 11.12
fold change (FC) [3]: 11.34
Ratio [42]: 3.6
SMILES: CCN(CC)CCOc1cc(-c2ccc(OC)c(OC)c2)cc2oc(N)c(-c3cccs3)c12
inhibition (INH) [1]: Dose-dependent effect
IC50 [4]: 34.9 µM
IC50 [5]: 31.2 µM
IC50 [6]: 21.5 µM
IC50 [7]: 18.5 µM
fold change (FC) [8]: 3.37
fold change (FC) [9]: 7.01
fold change (FC) [10]: 8.57
fold change (FC) [11]: 1.35
fold change (FC) [12]: 1.47
fold change (FC) [13]: 1.03
fold change (FC) [14]: 1.09
fold change (FC) [15]: 17.95
fold change (FC) [16]: 2.49
fold change (FC) [17]: 13.68
fold change (FC) [18]: 3.17
fold change (FC) [19]: 26.43
fold change (FC) [20]: 1.23
fold change (FC) [21]: 1.21
fold change (FC) [22]: 5.49
fold change (FC) [23]: 3.85
fold change (FC) [24]: 0.8
fold change (FC) [25]: 0.93
fold change (FC) [26]: 240
fold change (FC) [27]: 246
fold change (FC) [28]: 5.11
fold change (FC) [29]: 38.7
fold change (FC) [30]: 1.39
fold change (FC) [31]: 5.16
inhibition (INH) [32]: Dose-dependent effect
inhibition (INH) [33]: Dose-dependent effect
inhibition [34]: Dose-dependent effect
inhibition [35]: Dose-dependent effect
inhibition [36]: Dose-dependent effect
inhibition [37]: Dose-dependent effect
inhibition [38]: Dose-dependent effect
inhibition [39]: Dose-dependent effect
Activity [40]: inactive
Activity [41]: inactive

fold change (FC) [2]: 6.78
fold change (FC) [3]: 10.4
SMILES: COc1ccc(-c2cc(OCCN3CCCC3)c3c(-c4cccs4)c(N)oc3c2)cc1
inhibition (INH) [1]: Dose-dependent effect
IC50 [4]: 33.5 µM
IC50 [5]: 36.4 µM
IC50 [6]: 38.1 µM
IC50 [7]: 35.5 µM
fold change (FC) [8]: 2.58
fold change (FC) [9]: 1.95
fold change (FC) [10]: 7.15
fold change (FC) [11]: 0.98
fold change (FC) [12]: 1.39
fold change (FC) [13]: 0.98
fold change (FC) [14]: 0.97
fold change (FC) [15]: 9.07
fold change (FC) [16]: 1.18
fold change (FC) [17]: 10.03
fold change (FC) [18]: 2.65
fold change (FC) [19]: 6.14
fold change (FC) [20]: 1.08
fold change (FC) [21]: 1.13
fold change (FC) [22]: 3.69
fold change (FC) [23]: 4.06
fold change (FC) [24]: 1.1
fold change (FC) [25]: 1.47
fold change (FC) [26]: 177
fold change (FC) [27]: 260
fold change (FC) [28]: 2.8
fold change (FC) [29]: 14.7
fold change (FC) [30]: 1.37
fold change (FC) [31]: 1.94
inhibition (INH) [32]: Dose-dependent effect
inhibition (INH) [33]: Dose-dependent effect
inhibition [34]: Dose-dependent effect
inhibition [35]: Dose-dependent effect
inhibition [36]: Dose-dependent effect
inhibition [37]: Dose-dependent effect
inhibition [38]: Dose-dependent effect
inhibition [39]: Dose-dependent effect
Activity [40]: inactive
Activity [41]: inactive
